The text below walks through data of patent US20230330134A1, “METHOD OF PROPHYLAXIS OF CORONAVIRUS AND/OR RESPIRATORY SYNCYTIAL VIRUS INFECTION” (Starpharma Pty Ltd., priority 2020, published 2023).

In data set [1] the test system is SARS-CoV-2 2019-nCoV/USA-WAl/2020. As to the kind of experiment: Antiviral activity in primary human bronchial epithelial cells (HBEpC). In kind it is cell-based. To be noted: highest concentration tested (600 µg/mL), added 1 hour prior to infection, day 4.
The subject of data set [2] is SARS-CoV-2 hCoV-19/Australia/VIC01/2020. As to the kind of experiment: microbe, parasite or virus in culture. To be noted: Severe acute respiratory syndrome coronavirus 2, 96 h; positive control; Vero cells; […]; CPE by MTT after 4 days; read-out: EC50. The class given is cell-based.
Data set [3] concerns SARS-CoV-2 (2019-nCoV/USA-WA1/2020). As to the kind of experiment: microbe, parasite or virus in culture. The class given is cell-based. The note with it: for EC50: read-out: EC50.
For data set [4], the system named is SARS-CoV-2 (hCoV-19/Australia/VIC01/2020). The class given is cell-based.
Data set [5] relates to BetaCoV/Wuhan/WIV04/2019. To be noted: against BetaCoV/Wuhan/WIV04/2019; cited from earlier work.
The subject of data set [6] is SARS. To be noted: cited from earlier work.

Counter-ions that a name gives are not always drawn. Like-named read-outs stand apart in the source and are kept apart here.

Turning to iota-carrageenan [reference compound], in data set [1], the “reduction of infection by nucleocapsid ELISA” value is given as 17% and the “reduction of infection in the plaque assay” value stood at 21%.

In the case of `CCC(CC)COC(=O)[C@H](C)N[P@](=O)(OC[C@H]1O[C@@](C#N)(c2ccc3c(N)ncnn23)[C@H](O)[C@@H]1O)Oc1ccccc1` [Remdesivir, reference compound], the EC50 (usually the concentration needed to bring the measured effect to its halfway point) in data set [2] amounted to 5.05 µM; in data set [3] (Severe acute respiratory syndrome coronavirus 2, Calu-3), 0.589 µM; in data set [3] (Severe acute respiratory syndrome coronavirus 2, Vero C1008), 0.791 µM. Moreover, the “activity in the plaque assay” value in data set [3] (positive control) was “active”. Also, in data set [4], the “inhibition of virus replication” value is on record as less than 1 log10 TCID50.

For the compound `CCN(CCO)CCCC(C)Nc1ccnc2cc(Cl)ccc12` (centres unmarked) [Hydroxychloroquine sulfate], the “effect on virus replication” value in data set [4] (15 µM, any time point) is on record as “no discernible effect”.

With `CCN(CC)CCCC(C)Nc1ccnc2cc(Cl)ccc12` (centres unmarked) [chloroquine], the EC50 in data set [5] is 1.13 µM. In addition, the IC50 (usually the concentration needed to halve the response being measured) in data set [6] (against SARS) is 8 µM. Further, in data set [6], the CC50 is 261 µM.
